Test results as given in patent publication US7118895B2, “Process for producing aglycon by using diglycosidase and flavor-improved food containing the aglycon and converting agent to be used in the process” (Amano Enzyme Inc., priority 2000, dated 2006).

Key:
[1] = tested on: Crude diglycosidase; assay: Examination of pH in the conversion into isoflavone aglycons by diglycosidase using soybean materials; type: biochemical, Penicillium multicolor IAM7153; set-up: Decomposition efficiency of genistin family in soymilk / Decomposition efficiency of genistin family in defatted soybean / Decomposition efficiency of daidzin family in defatted soybean: concentration or dose not given beside the values; conditions: for Decomposition efficiency of daidzin family in roasted soy flour: 55° C.
How it was run: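 Each soybean material (50 mg) is suspended and set to a pH between 2 and 11. Crude diglycosidase, adjusted to 1.88 AU/mL in enzyme solution of the same pH, is added, and the mixture is incubated at 55° C. Ethanol is added at 0, 1, 3 and 6 h, then supernatants go to HPLC.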

[2] = tested on: Purified diglycosidase; assay: Influence of free glucose on diglycosidase activity; type: biochemical, Penicillium multicolor IAM7153; conditions: isolated aglycon amount at glucose 0% and 0.5 hour = 100%
[3] = pH6.6, heat treatment of enzyme: no, reaction time 0 h
[4] = pH6.6, heat treatment of enzyme: no, reaction time 1 h
[5] = pH6.6, heat treatment of enzyme: no, reaction time 3 h
[6] = pH6.6, heat treatment of enzyme: no, reaction time 6 h
[7] = pH6.6, heat treatment of enzyme: yes, reaction time 6 h

CC(=O)OC[C@H]1O[C@@H](Oc2ccc3c(=O)c(-c4ccc(O)cc4)coc3c2)[C@H](O)[C@@H](O)[C@@H]1O [acetyldaidzin, 6″-O-acetyldaidzin]
Decomposition efficiency of daidzin family in roasted soy flour ([1]; pH5, heat treatment of enzyme no, reaction time 3 h): 24.7 | Decomposition efficiency of daidzin family in roasted soy flour ([1]; pH5, heat treatment of enzyme no, reaction time 6 h): 15.2 | Decomposition efficiency of daidzin family in roasted soy flour ([1]; pH5, heat treatment of enzyme yes, reaction time 6 h): 45.0 | Decomposition efficiency of daidzin family in concentrated soybean protein ([1]; pH5.1, heat treatment of enzyme: no, reaction time 0 h): 44.6% | Decomposition efficiency of daidzin family in concentrated soybean protein ([1]; pH5.1, heat treatment of enzyme: no, reaction time 1 h): 43.4% | Decomposition efficiency of daidzin family in concentrated soybean protein ([1]; pH5.1, heat treatment of enzyme: no, reaction time 3 h): 37.0% | Decomposition efficiency of daidzin family in concentrated soybean protein ([1]; pH5.1, heat treatment of enzyme: no, reaction time 6 h): 31.2% | Decomposition efficiency of daidzin family in concentrated soybean protein ([1]; pH5.1, heat treatment of enzyme: yes, reaction time 6 h): 43.4% | Decomposition efficiency of daidzin family in defatted soybean ([1]; pH5.4, heat treatment of enzyme: no, reaction time 0 h): not detected | Decomposition efficiency of daidzin family in defatted soybean ([1]; pH5.4, heat treatment of enzyme: no, reaction time 1 h): not detected | Decomposition efficiency of daidzin family in defatted soybean ([1]; pH5.4, heat treatment of enzyme: no, reaction time 3 h): not detected | Decomposition efficiency of daidzin family in defatted soybean ([1]; pH5.4, heat treatment of enzyme: no, reaction time 6 h): not detected | Decomposition efficiency of daidzin family in defatted soybean ([1]; pH5.4, heat treatment of enzyme: yes, reaction time 6 h): not detected | Decomposition efficiency of daidzin family in soymilk ([1]; pH6.2, heat treatment of enzyme: no, reaction time 0 h): not detected | Decomposition efficiency of daidzin family in soymilk ([1]; pH6.2, heat treatment of enzyme: no, reaction time 1 h): not detected | Decomposition efficiency of daidzin family in soymilk ([1]; pH6.2, heat treatment of enzyme: no, reaction time 3 h): not detected | Decomposition efficiency of daidzin family in soymilk ([1]; pH6.2, heat treatment of enzyme: no, reaction time 6 h): not detected | Decomposition efficiency of daidzin family in soymilk ([1]; pH6.2, heat treatment of enzyme: yes, reaction time 6 h): not detected | Decomposition efficiency of daidzin family in roasted soy flour ([1]; pH6.5, heat treatment of enzyme no, reaction time 0 h): 48.2 | Decomposition efficiency of daidzin family in roasted soy flour ([1]; pH6.5, heat treatment of enzyme no, reaction time 1 h): 45.4 | Decomposition efficiency of daidzin family in roasted soy flour ([1]; pH6.5, heat treatment of enzyme no, reaction time 3 h): 39.2 | Decomposition efficiency of daidzin family in roasted soy flour ([1]; pH6.5, heat treatment of enzyme no, reaction time 6 h): 34.4 | Decomposition efficiency of daidzin family in roasted soy flour ([1]; pH6.5, heat treatment of enzyme yes, reaction time 6 h): 43.4 | Decomposition efficiency of daidzin family in concentrated soybean protein [1, 3]: 44.8% | Decomposition efficiency of daidzin family in defatted soybean [1, 3]: not detected | Decomposition efficiency of daidzin family in concentrated soybean protein [1, 4]: 43.9% | Decomposition efficiency of daidzin family in defatted soybean [1, 4]: not detected | Decomposition efficiency of daidzin family in concentrated soybean protein [1, 5]: 42.9% | Decomposition efficiency of daidzin family in defatted soybean [1, 5]: not detected | Decomposition efficiency of daidzin family in concentrated soybean protein [1, 6]: 41.2% | Decomposition efficiency of daidzin family in defatted soybean [1, 6]: not detected | Decomposition efficiency of daidzin family in concentrated soybean protein [1, 7]: 41.8% | Decomposition efficiency of daidzin family in defatted soybean [1, 7]: not detected | Decomposition efficiency of daidzin family in soymilk ([1]; pH7.2, heat treatment of enzyme: no, reaction time 0 h): not detected | Decomposition efficiency of daidzin family in soymilk ([1]; pH7.2, heat treatment of enzyme: no, reaction time 1 h): not detected | Decomposition efficiency of daidzin family in soymilk ([1]; pH7.2, heat treatment of enzyme: no, reaction time 3 h): not detected | Decomposition efficiency of daidzin family in soymilk ([1]; pH7.2, heat treatment of enzyme: no, reaction time 6 h): not detected | Decomposition efficiency of daidzin family in soymilk ([1]; pH7.2, heat treatment of enzyme: yes, reaction time 6 h): not detected | Decomposition efficiency of daidzin family in defatted soybean ([1]; pH7.8, heat treatment of enzyme: no, reaction time 0 h): not detected | Decomposition efficiency of daidzin family in defatted soybean ([1]; pH7.8, heat treatment of enzyme: no, reaction time 1 h): not detected | Decomposition efficiency of daidzin family in defatted soybean ([1]; pH7.8, heat treatment of enzyme: no, reaction time 3 h): not detected | Decomposition efficiency of daidzin family in defatted soybean ([1]; pH7.8, heat treatment of enzyme: no, reaction time 6 h): not detected | Decomposition efficiency of daidzin family in defatted soybean ([1]; pH7.8, heat treatment of enzyme: yes, reaction time 6 h): not detected | Decomposition efficiency of daidzin family in roasted soy flour ([1]; pH8.5, heat treatment of enzyme no, reaction time 0 h): 42.1 | Decomposition efficiency of daidzin family in roasted soy flour ([1]; pH8.5, heat treatment of enzyme no, reaction time 1 h): 42.7 | Decomposition efficiency of daidzin family in roasted soy flour ([1]; pH8.5, heat treatment of enzyme no, reaction time 3 h): 40.3 | Decomposition efficiency of daidzin family in roasted soy flour ([1]; pH8.5, heat treatment of enzyme no, reaction time 6 h): 38.0 | Decomposition efficiency of daidzin family in roasted soy flour ([1]; pH8.5, heat treatment of enzyme yes, reaction time 6 h): 37.3 | Decomposition efficiency of daidzin family in concentrated soybean protein ([1]; pH8.6, heat treatment of enzyme: no, reaction time 0 h): 40.7% | Decomposition efficiency of daidzin family in concentrated soybean protein ([1]; pH8.6, heat treatment of enzyme: no, reaction time 1 h): 39.2% | Decomposition efficiency of daidzin family in concentrated soybean protein ([1]; pH8.6, heat treatment of enzyme: no, reaction time 3 h): 39.0% | Decomposition efficiency of daidzin family in concentrated soybean protein ([1]; pH8.6, heat treatment of enzyme: no, reaction time 6 h): 38.1% | Decomposition efficiency of daidzin family in concentrated soybean protein ([1]; pH8.6, heat treatment of enzyme: yes, reaction time 6 h): 37.7% | Decomposition efficiency of daidzin family in soymilk ([1]; pH11.6, heat treatment of enzyme: no, reaction time 0 h): not detected | Decomposition efficiency of daidzin family in soymilk ([1]; pH11.6, heat treatment of enzyme: no, reaction time 1 h): not detected | Decomposition efficiency of daidzin family in soymilk ([1]; pH11.6, heat treatment of enzyme: no, reaction time 3 h): not detected | Decomposition efficiency of daidzin family in soymilk ([1]; pH11.6, heat treatment of enzyme: no, reaction time 6 h): not detected | Decomposition efficiency of daidzin family in soymilk ([1]; pH11.6, heat treatment of enzyme: yes, reaction time 6 h): not detected | Isolation of isoflavone aglycons by diglycosidase in presence of glucose ([2]; Glucose concentration 0 %): 100% | Isolation of isoflavone aglycons by diglycosidase in presence of glucose ([2]; Glucose concentration 2 %): 108.1% | Isolation of isoflavone aglycons by diglycosidase in presence of glucose ([2]; Glucose concentration 4 %): 112.2% | Isolation of isoflavone aglycons by diglycosidase in presence of glucose ([2]; Glucose concentration 8 %): 115.8% | Isolation of isoflavone aglycons by diglycosidase in presence of glucose ([2]; Glucose concentration 20 %): 114.5%
